± gives the expanded uncertainty stated by the source.
Test: xn = mol fraction of the nth substance listed
Settings: 101 kPa, Liquid; for viscosity: Concentric cylinders viscometry; for mass density: Vibrating tube method

In the case of CCOC(=O)C(C)O (stereo not drawn) [DL-ethyl lactate] + CCC(C)=O, the viscosity (288.15 K, x1 = 0.0999) is reported as 0.5127 ± 0.0066 mPa·s, the viscosity (288.15 K, x1 = 0.1999) is reported as 0.6157 ± 0.0075 mPa·s and the viscosity (288.15 K, x1 = 0.3001) is reported as 0.7578 ± 0.0087 mPa·s. The viscosity (288.15 K, x1 = 0.4001) was 0.9204 ± 0.01 mPa·s, the viscosity (288.15 K, x1 = 0.5) was 1.128 ± 0.012 mPa·s and the viscosity (288.15 K, x1 = 0.5998) was 1.384 ± 0.015 mPa·s. For the same molecule, the viscosity (288.15 K, x1 = 0.6999) was 1.707 ± 0.018 mPa·s, the viscosity (288.15 K, x1 = 0.8) was 2.113 ± 0.022 mPa·s and the viscosity (288.15 K, x1 = 0.9001) was 2.63 ± 0.027 mPa·s. For the same molecule, the viscosity (288.15 K, x1 = 1) was 3.207 ± 0.033 mPa·s, the mass density (288.15 K, x1 = 0.0999) was 840.096 ± 0.15 kg/m3 and the mass density (288.15 K, x1 = 0.1999) was 868.347 ± 0.15 kg/m3. For the same molecule, the mass density (288.15 K, x1 = 0.3001) was 894.852 ± 0.15 kg/m3, the mass density (288.15 K, x1 = 0.4001) was 919.605 ± 0.15 kg/m3 and the mass density (288.15 K, x1 = 0.5) was 942.723 ± 0.16 kg/m3. The mass density (288.15 K, x1 = 0.5998) was 964.577 ± 0.17 kg/m3, the mass density (288.15 K, x1 = 0.6999) was 985.434 ± 0.18 kg/m3 and the mass density (288.15 K, x1 = 0.8) was 1005.13 ± 0.2 kg/m3. It also gave a mass density (288.15 K, x1 = 0.9001) of 1023.3 ± 0.23 kg/m3, a mass density (288.15 K, x1 = 1) of 1039.28 ± 0.26 kg/m3 and a viscosity (293.15 K, x1 = 0.0999) of 0.4886 ± 0.0064 mPa·s. The viscosity (293.15 K, x1 = 0.1999) was 0.5824 ± 0.0072 mPa·s, the viscosity (293.15 K, x1 = 0.3001) was 0.7086 ± 0.0083 mPa·s and the viscosity (293.15 K, x1 = 0.4001) was 0.8532 ± 0.0095 mPa·s. The viscosity (293.15 K, x1 = 0.5) was 1.035 ± 0.011 mPa·s, the viscosity (293.15 K, x1 = 0.5998) was 1.254 ± 0.013 mPa·s and the viscosity (293.15 K, x1 = 0.6999) was 1.527 ± 0.016 mPa·s. The viscosity (293.15 K, x1 = 0.8) was 1.862 ± 0.019 mPa·s, the viscosity (293.15 K, x1 = 0.9001) was 2.287 ± 0.024 mPa·s and the viscosity (293.15 K, x1 = 1) was 2.752 ± 0.028 mPa·s. The mass density (293.15 K, x1 = 0.0999) was 834.849 ± 0.15 kg/m3, the mass density (293.15 K, x1 = 0.1999) was 863.068 ± 0.15 kg/m3 and the mass density (293.15 K, x1 = 0.3001) was 889.537 ± 0.15 kg/m3. For the same molecule, the mass density (293.15 K, x1 = 0.4001) was 914.27 ± 0.15 kg/m3, the mass density (293.15 K, x1 = 0.5) was 937.369 ± 0.16 kg/m3 and the mass density (293.15 K, x1 = 0.5998) was 959.204 ± 0.17 kg/m3. It also gave a mass density (293.15 K, x1 = 0.6999) of 980.043 ± 0.18 kg/m3, a mass density (293.15 K, x1 = 0.8) of 999.721 ± 0.2 kg/m3 and a mass density (293.15 K, x1 = 0.9001) of 1017.88 ± 0.23 kg/m3. For the same molecule, the mass density (293.15 K, x1 = 1) was 1033.84 ± 0.26 kg/m3, the viscosity (298.15 K, x1 = 0.0999) was 0.4651 ± 0.0063 mPa·s and the viscosity (298.15 K, x1 = 0.1999) was 0.5514 ± 0.0069 mPa·s. It also gave a viscosity (298.15 K, x1 = 0.3001) of 0.6643 ± 0.0079 mPa·s, a viscosity (298.15 K, x1 = 0.4001) of 0.7937 ± 0.009 mPa·s and a viscosity (298.15 K, x1 = 0.5) of 0.9526 ± 0.01 mPa·s. The viscosity (298.15 K, x1 = 0.5998) was 1.141 ± 0.012 mPa·s, the viscosity (298.15 K, x1 = 0.6999) was 1.375 ± 0.015 mPa·s and the viscosity (298.15 K, x1 = 0.8) was 1.658 ± 0.017 mPa·s. For the same molecule, the viscosity (298.15 K, x1 = 0.9001) was 2.007 ± 0.021 mPa·s, the viscosity (298.15 K, x1 = 1) was 2.39 ± 0.025 mPa·s and the mass density (298.15 K, x1 = 0.0999) was 829.575 ± 0.15 kg/m3. It also gave a mass density (298.15 K, x1 = 0.1999) of 857.764 ± 0.15 kg/m3, a mass density (298.15 K, x1 = 0.3001) of 884.198 ± 0.15 kg/m3 and a mass density (298.15 K, x1 = 0.4001) of 908.905 ± 0.15 kg/m3. The mass density (298.15 K, x1 = 0.5) was 931.98 ± 0.16 kg/m3, the mass density (298.15 K, x1 = 0.5998) was 953.795 ± 0.17 kg/m3 and the mass density (298.15 K, x1 = 0.6999) was 974.621 ± 0.18 kg/m3. The mass density (298.15 K, x1 = 0.8) was 994.289 ± 0.2 kg/m3, the mass density (298.15 K, x1 = 0.9001) was 1012.45 ± 0.22 kg/m3 and the mass density (298.15 K, x1 = 1) was 1028.39 ± 0.25 kg/m3. For the same molecule, the viscosity (303.15 K, x1 = 0.0999) was 0.4429 ± 0.0061 mPa·s, the viscosity (303.15 K, x1 = 0.1999) was 0.5214 ± 0.0067 mPa·s and the viscosity (303.15 K, x1 = 0.3001) was 0.6229 ± 0.0075 mPa·s. For the same molecule, the viscosity (303.15 K, x1 = 0.4001) was 0.7397 ± 0.0086 mPa·s, the viscosity (303.15 K, x1 = 0.5) was 0.8816 ± 0.0099 mPa·s and the viscosity (303.15 K, x1 = 0.5998) was 1.046 ± 0.011 mPa·s. It also gave a viscosity (303.15 K, x1 = 0.6999) of 1.248 ± 0.013 mPa·s, a viscosity (303.15 K, x1 = 0.8) of 1.489 ± 0.016 mPa·s and a viscosity (303.15 K, x1 = 0.9001) of 1.783 ± 0.019 mPa·s. For the same molecule, the viscosity (303.15 K, x1 = 1) was 2.097 ± 0.022 mPa·s, the mass density (303.15 K, x1 = 0.0999) was 824.277 ± 0.15 kg/m3 and the mass density (303.15 K, x1 = 0.1999) was 852.434 ± 0.15 kg/m3. It also gave a mass density (303.15 K, x1 = 0.3001) of 878.836 ± 0.15 kg/m3, a mass density (303.15 K, x1 = 0.4001) of 903.522 ± 0.16 kg/m3 and a mass density (303.15 K, x1 = 0.5) of 926.577 ± 0.16 kg/m3. The mass density (303.15 K, x1 = 0.5998) was 948.373 ± 0.17 kg/m3, the mass density (303.15 K, x1 = 0.6999) was 969.181 ± 0.18 kg/m3 and the mass density (303.15 K, x1 = 0.8) was 988.835 ± 0.2 kg/m3. For the same molecule, the mass density (303.15 K, x1 = 0.9001) was 1006.99 ± 0.22 kg/m3 and the mass density (303.15 K, x1 = 1) was 1022.92 ± 0.25 kg/m3.

Reference: the NIST ThermoML archive (doi:10.1016/j.fluid.2015.04.017)
